“Also recorded” adds a separate entry of the source.
Columns and labels:
[1] = system: CAL33 human HNSCC cell line; experiment: cells; assay type: cell-based; details: CAL-33, MTT, 72h incubation, drug used alone
Protocol: (§1) The 3-(4,5-dimethylthiazol-2-yl)-2,5-diphenyltetrazolium bromide (MTT) cell proliferation assay was used to determine the growth inhibitory effect of gefitinib on the Hep2, CAL33 and […] human HNSCC cell lines. […] Each measurement was done in quadruplicate and the data were expressed as % proliferation of control cells incubated in the absence of drug.

[2] = system: Hep2 human HNSCC cell line; experiment: cells; assay type: cell-based
Protocol: as §1

[3] = system: PC3 human HNSCC cell line; experiment: cells; assay type: cell-based; details: MTT, 72h incubation, drug used alone
Protocol: as §1

[4] = system: human SC131 NSCLC xenograft; assay type: in vivo, nude mice
Protocol: (§2) The effect of gefitinib and PEITC alone or in combination on the growth of human tumor xenografts in nude mice was tested according to previously published procedures.
(§3) Briefly, tumor xenografts were maintained by successive s.c. transplantation of tumor fragments in 8-week old nude mice. Tumor growth curves were obtained by plotting the mean relative tumor volume (i.e. the volume at a given time divided by the volume at the start of the experiment) from groups of at least 5 mice against time. Gefitinib was administered per os at 40 or 120 mg/kg 5 days a week for 3 to 5 weeks, while PEITC dissolved in corn oil was administered per os at 20 to 90 mg/kg every 2 days.

[5] = system: human HEP-2 HNSCC xenograft; design: species or system nude mice; details: mouse, in vivo
Protocol: as §2, §3

[6] = Toxicity in treated xenograft-bearing mice (weight loss, clinical observation); assay type: in vivo, nude mice; details: gefitinib 40 or 120 mg/kg per os 5 days a week; PEITC 20 to 90 mg/kg per os every 2 days
Protocol: as §3

[7] = system: human IC14 NSCLC xenograft; experiment: Tumor xenograft growth in nude mice; assay type: in vivo; details: gefitinib 120 mg/kg per os, 5 days a week for 3 to 5 weeks
Protocol: as §2, §3

[8] = system: human IC9 NSCLC xenograft; experiment: Tumor xenograft growth in nude mice; assay type: in vivo; details: gefitinib 120 mg/kg per os, 5 days a week for 3 to 5 weeks
Protocol: as §2, §3

[9] = system: human TEP NSCLC xenograft; experiment: Tumor xenograft growth in nude mice; assay type: in vivo; details: gefitinib 120 mg/kg per os, 5 days a week for 3 to 5 weeks
Protocol: as §2, §3

advanced NSCLC = details: 142 patients with refractory disease; cited from earlier work
NSCLC = details: gefitinib added to chemotherapy; over 2000 previously untreated NSCLC patients; cited from earlier work

| SMILES | IC50 [1] | IC50 ([2]; Homo sapiens, HEP-2, MTT, 72h incubation, drug used alone) | IC50 [3] | inhibition of tumor growth ([4]; mouse, in vivo) | inhibition of tumor growth [5] | toxicity, judged by absence of weight loss and clinical observation [6] | increase in the IC50 for gefitinib, compared with CAL33 and PC3 ([2]; Hep2 versus CAL33 and PC3) | tumor growth response [7] | tumor growth response [8] | tumor growth response [9] | tumor growth response ([4]; gefitinib 120 mg/kg per os, 5 days a week for 3 to 5 weeks) | response rate (advanced NSCLC) | benefit in survival, tumor response, or time to progression (NSCLC) |
| --- | --- | --- | --- | --- | --- | --- | --- | --- | --- | --- | --- | --- | --- |
| S=C=NCCc1ccccc1 [PEITC, Phenylethyl isothiocyanate] | 180 µM | 350 µM | 490 µM | neither gefitinib or PEITC had any antitumor effect | neither gefitinib or PEITC had any antitumor effect | No toxicity was observed |  |  |  |  |  |  |  |
| COc1cc2ncnc(Nc3ccc(F)c(Cl)c3)c2cc1OCCCN1CCOCC1 [gefitinib, Gefitinib] |  |  |  |  |  | No toxicity was observed | 4 fold | responded | sensitive; also recorded: responded | responded | refractory; also recorded: did not respond | 10% | no benefit |

Source: patent publication EP1564305A2, “Means for detecting and treating cancer cells resistant to therapeutic agents” (priority 2004, dated 2005)
